Data: US20060020110A1, “Synthetic peptides that bind to the hepatitis B virus core and E antigens” (priority 2000, published 2006)

Key:
HBcAg [1] = biological target: T1, HBcAg (Hepatitis B virus genotype D subtype ayw, UniProt P03146); settings: for OD at 490 nm, bound peptide SEQ. ID. No. 74: HBcAg coated 1 μg/ml, 5 μg SEQ. ID. No. 74 + 5 μg HBcAg peptide, no inhibitor OD 1.454; for Std. Deviation from the mean: deviation of the OD from the mean OD of all peptides
Experimental: In this experiment, microplates were coated overnight with 1 μg/ml HBcAg and, subsequently, a 100 μl mixture containing 5 μg of the peptide […] […] The HBcAg peptides were approximately 20 amino acids in length and corresponded to regions of HBcAg spanning amino acid residues 11-183. The experiment was performed in triplicate.

HBcAg [2] = biological target: T1, HBcAg; settings: peptide added prior to addition of mAb; uninhibited control mean OD 0.871
Source text: (§1) One approach to rational drug design involves sequential amino acid deletion of a known binding partner starting from either the amino or carboxy termini. Amino-terminal deletions of the binding partners of SEQ. ID. Nos. 5 and 17 were made and these peptide fragments were joined to a support and analyzed for the ability to bind HBcAg. […] ID. […] The amino-terminal deletions of the peptide of SEQ. ID. […] The amino-terminal deletion products of the peptide of SEQ. ID. […] ID.
Variations of the characterization assays described above include competitive binding assays. […] Initial experiments were conducted by contacting binding partner to HBcAg prior to introducing the antibody. […] ID. […] ID. […] ID. […] ID. […] ID. […] ID.

HBcAg [3] = biological target: T1, HBcAg; settings: for OD at 490 nm, HBcAg binding to support-bound amino terminal deletion peptides: HBcAg added at 5 μg/ml; for OD at 405 nm to indicated antigen: HBcAg 0.2 μg/well / OD at 405 nm to indicated antigen: HBcAg 2 μg/well: support-bound peptide
Source text: as §1
To determine whether a candidate binding partner bound to HBcAg and/or HbeAg, a multimeric support-based binding assay was performed. Accordingly, synthetic peptides corresponding to the VH and VL domains of the sequenced mAbs were passively adsorbed to 96 well microplates in serial dilutions starting at 200 μg/ml. The peptide coated plates were then incubated with HBcAg and HBeAg serially diluted in PBS-GT. The amount of HBcAg and HBeAg bound by the peptides was then detected using a mAb directed to an epitope common to HBcAg and HBeAg (See Sällberg et al., J General Virology 74:1335-1340 (1993), herein expressly incorportaed by reference in its entirety) diluted 1:3000 in PBS-GT. The quantity of bound mAb was determined by addition by peroxidase labeled rabbit anti-mouse IgG (P260, Dako A S, Denmark). The plates were developed by incubation with ortho-phenylene-diamine (Sigma) and the absorbance at 492 nm was evaluated.
The converse of an aspect of this experiment was also performed. That is, various dilutions of support-bound binding partners (SEQ. ID. Nos. 5, 16, 17, 28, and 29) were contacted with 10 μg/ml of HBcAg and binding was evaluated. ID.

T1 sequence (P03146 whole entry, the tested form may be a part): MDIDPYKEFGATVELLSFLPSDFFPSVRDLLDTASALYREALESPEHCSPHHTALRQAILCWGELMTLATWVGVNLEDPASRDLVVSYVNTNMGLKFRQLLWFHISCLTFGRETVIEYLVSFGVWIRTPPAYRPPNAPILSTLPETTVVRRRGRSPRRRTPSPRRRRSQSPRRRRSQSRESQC

Row | Substance | OD at 490 nm, bound peptide SEQ. ID. No. 74 (HBcAg [1]) | Std. Deviation from the mean (HBcAg [1]) | OD at 490 nm, HBcAg binding to support-bound amino terminal deletion peptides (HBcAg [3]) | further results
1 | ATVELLSFLPSDFFPSVRDL [SEQ. ID. No. 96] | 1.387 | 0.696 | – | –
2 | KLSCKASGYIFTS [SEQ. ID. No. 45] | – | – | 3.694 | OD at 490 nm, mAb 4-2 binding to HBcAg (HBcAg [2]): 0.808
3 | QSVSTSSYSYMHWY [SEQ. ID. No. 58] | – | – | 0.282 | –
4 | SVSTSSYSYMHWY [SEQ. ID. No. 59] | – | – | 0.305 | –
5 | CWGELMTLATWVGVNLEDPA [SEQ. ID. No. 101] | 1.395 | 0.712 | – | –
6 | ASQSVSTSSYSYMHWY [SEQ. ID. No. 56] | – | – | 0.324 | –
7 | YSYMHWY [SEQ. ID. No. 64] | – | – | 0.245 | –
8 | ASVKLSCKASGYIFTS [SEQ. ID. No. 42] | – | – | 3.219 | OD at 490 nm, mAb 4-2 binding to HBcAg (HBcAg [2]): 0.207
9 | WVGVNLEDPASRDLVVSYVN [SEQ. ID. No. 102] | 1.411 | 0.744 | – | –
10 | YDIDWVRQTPEQGLEWIGWI (Synthetically prepared amino acid sequence) [Peptide 4] | – | – | – | OD at 405 nm to indicated antigen: HBcAg 0.2 μg/well (HBcAg [3]): 0.202; OD at 405 nm to indicated antigen: HBcAg 2 μg/well (HBcAg [3]): 0.551
11 | PGASVKLSCKASGYIFTS [SEQ. ID. No. 40] | – | – | 1.722 | OD at 490 nm, mAb 4-2 binding to HBcAg (HBcAg [2]): 0.182
12 | TNMGLKFRQLLWFHISCLTF [SEQ. ID. No. 104] | 0.058 | −1.984 | – | Effect on binding of peptide SEQ. ID. No. 74 to HBcAg (in words) (HBcAg [1]; 5 μg HBcAg peptide + 5 μg SEQ. ID. No. 74, triplicate): consistently reduced the binding
13 | LWFHISCLTFGRETVIEYLV [SEQ. ID. No. 105] | 1.129 | .175 | – | –
14 | KASGYIFTS [SEQ. ID. No. 49] | – | – | 0.237 | OD at 490 nm, mAb 4-2 binding to HBcAg (HBcAg [2]): 0.866
15 | SVKLSCKASGYIFTS [SEQ. ID. No. 43] | – | – | 3.364 | OD at 490 nm, mAb 4-2 binding to HBcAg (HBcAg [2]): 0.175
16 | SCRASQSVSTSSYSYMHWY [SEQ. ID. No. 53] | – | – | 1.452 | –
17 | STLPETTVVRRRGRSPRRRT [SEQ. ID. No. 109] | 0.811 | −0.466 | – | –
18 | QLNSLTSEDSAVYYCARGKG (Synthetically prepared amino acid sequence) [Peptide 32] | – | – | – | OD at 405 nm to indicated antigen: HBcAg 0.2 μg/well (HBcAg [3]): 0.121; OD at 405 nm to indicated antigen: HBcAg 2 μg/well (HBcAg [3]): 0.528
19 | GRETVIEYLVSFGVWIRTPP [SEQ. ID. No. 106] | 0.832 | −0.423 | – | –
20 | RRGRSPRRRTPSPRRRRSQS [SEQ. ID. No. 110] | 0.732 | −0.625 | – | –
21 | CRASQSVSTSSYSYMHWY [SEQ. ID. No. 54] | – | – | 1.415 | –
22 | SYMHWY [SEQ. ID. No. 65] | – | – | 0.218 | –
23 | ALESPEHCSPHHTALRQAIL [SEQ. ID. No. 99] | 1.372 | 0.665 | – | –
24 | KPGASVKLSCKASGYIFTS [SEQ. ID. No. 39] | – | – | 1.337 | OD at 490 nm, mAb 4-2 binding to HBcAg (HBcAg [2]): 0.202
